Laboratory results published in PubChem BioAssay AID180 (DTP/NCI, 2004).
Several values for one entry are separate records, joined by “and”; a condition that tells them apart may be missing. Identical values can stand only once.

System: BDF1 mice, Adenocarcinoma 755 s.c., tumor weight T/C
Assay: NCI In Vivo Anticancer Drug Screen. Data for tumor model Adenocarcinoma 755 (subcutaneous) in B6D2F1 (BDF1) mice
Conditions: endpoint: mean tumor weight, higher = larger tumour
Procedure, shortened: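 Compound activity was tested in mice carrying transplanted tumors. Survival or tumor size was measured, and each value is the treated-group measurement divided by that of the vehicle-treated control group (T/C).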

[1] = dose: 200.0 mg/kg/injection, schedule: Q01DX011 (ip), vehicle: carboxymethylcellulose (CMC)

In the case of `CCCCCSc1nc(N)nc2nc[nH]c12`, the T/C (dose: 0.04 mg/kg/injection, schedule: Q01DX011 (ip), vehicle: alkali diluted with saline) is reported as 114 % of control, the T/C (dose: 0.08 mg/kg/injection, schedule: Q01DX011 (ip), vehicle: alkali diluted with saline) is reported as 119 % of control and the T/C (dose: 0.16 mg/kg/injection, schedule: Q01DX011 (ip), vehicle: alkali diluted with saline) is reported as 95 % of control. The T/C (dose: 0.32 mg/kg/injection, schedule: Q01DX011 (ip), vehicle: alkali diluted with saline) was 80 % of control, the T/C (dose: 0.63 mg/kg/injection, schedule: Q01DX011 (ip), vehicle: alkali diluted with saline) was 112 % of control and the T/C (dose: 1.25 mg/kg/injection, schedule: Q01DX011 (ip), vehicle: alkali diluted with saline) was 97 % of control. For the same compound, the T/C (dose: 1.5 mg/kg/injection, schedule: Q01DX011 (ip), vehicle: saline) was 79 % of control, the T/C (dose: 2.5 mg/kg/injection, schedule: Q01DX011 (ip), vehicle: alkali diluted with saline) was 85 % of control and the T/C (dose: 3.1 mg/kg/injection, schedule: Q01DX011 (ip), vehicle: saline) was 100 % of control. The T/C (dose: 5.0 mg/kg/injection, schedule: Q01DX011 (ip), vehicle: alkali diluted with saline) was 106 % of control, the T/C (dose: 6.25 mg/kg/injection, schedule: Q01DX011 (ip), vehicle: saline) was 83 % of control and the T/C (dose: 10.0 mg/kg/injection, schedule: Q01DX011 (ip), vehicle: alkali diluted with saline) was 82 % of control. The T/C (dose: 12.5 mg/kg/injection, schedule: Q01DX011 (ip), vehicle: saline) was 43 % of control, the T/C (dose: 25.0 mg/kg/injection, schedule: Q01DX011 (ip), vehicle: saline) was 47 % of control and the T/C (dose: 50.0 mg/kg/injection, schedule: Q01DX011 (ip), vehicle: saline) was 7 % of control. The T/C (dose: 100.0 mg/kg/injection, schedule: Q01DX011 (ip), vehicle: saline) was 3 % of control.

`O=[N+]([O-])c1ccc(Oc2cc(Cl)c(Cl)cc2Cl)c([N+](=O)[O-])c1` was tested, and the T/C (dose: 100.0 mg/kg/injection, schedule: Q01DX011 (ip), vehicle: other) was 91 % of control, the T/C [1] was 56 % of control and 74 % of control and the T/C (dose: 200.0 mg/kg/injection, schedule: Q01DX011 (ip), vehicle: other) was 91 % of control. For the same compound, the T/C (dose: 400.0 mg/kg/injection, schedule: Q01DX011 (ip), vehicle: carboxymethylcellulose (CMC)) was 61 % of control, the T/C (dose: 400.0 mg/kg/injection, schedule: Q01DX011 (ip), vehicle: other) was 54 % of control and the T/C (dose: 800.0 mg/kg/injection, schedule: Q01DX011 (ip), vehicle: carboxymethylcellulose (CMC)) was 19 % of control. For the same compound, the T/C (dose: 800.0 mg/kg/injection, schedule: Q01DX011 (ip), vehicle: other) was 33 % of control.

With `CCN(CC)CCOc1ccc(C2=C(c3ccccc3)CCc3cc(OC)ccc32)cc1` the T/C (dose: 25.0 mg/kg/injection, schedule: Q01DX011 (sc), vehicle: steriod suspending solution) was 48 % of control and the T/C (dose: 50.0 mg/kg/injection, schedule: Q01DX011 (sc), vehicle: steriod suspending solution) was 32 % of control.

With `CCCCCCCCSc1ncnc2c1ncn2CC` the T/C (dose: 150.0 mg/kg/injection, schedule: Q01DX011 (ip), vehicle: saline) was 58 % of control and the T/C (dose: 300.0 mg/kg/injection, schedule: Q01DX011 (ip), vehicle: saline) was 17 % of control.

With `O=S(=O)(F)c1nc(Cl)c2[nH]cnc2n1` the T/C (dose: 6.2 mg/kg/injection, schedule: Q01DX011 (ip), vehicle: methylcellulose (MC)) was 117 % of control.

For `Nc1n[se]nc1C(=O)O`, the T/C (dose: 0.75 mg/kg/injection, schedule: Q01DX011 (ip), vehicle: carboxymethylcellulose (CMC)) was 82 % of control.

For `O=C(Nc1ccc(C2=NCCS2)cc1)c1ccc(C(=O)Nc2ccc(C3=NCCS3)cc2)cc1`, the T/C (dose: 30.0 mg/kg/injection, schedule: Q01DX011 (ip), vehicle: methylcellulose (MC)) was 118 % of control and the T/C (dose: 120.0 mg/kg/injection, schedule: Q01DX011 (ip), vehicle: methylcellulose (MC)) was 121 % of control.

With `CCCCCCCCCCCC[N+](C)(C)c1ncnc2nc[nH]c12` the T/C (dose: 12.0 mg/kg/injection, schedule: Q01DX011 (ip), vehicle: carboxymethylcellulose (CMC)) was 103 % of control, the T/C (dose: 24.0 mg/kg/injection, schedule: Q01DX011 (ip), vehicle: carboxymethylcellulose (CMC)) was 55 % of control and the T/C (dose: 48.0 mg/kg/injection, schedule: Q01DX011 (ip), vehicle: carboxymethylcellulose (CMC)) was 13 % of control.

In the case of `O=C1c2ccccc2C(=O)c2c1c(O)c1ccccc1c2O`, the T/C (dose: 100.0 mg/kg/injection, schedule: Q#A X022 (im), vehicle: other) is reported as 92 % of control, the T/C (dose: 100.0 mg/kg/injection, schedule: Q#A X022 (sc), vehicle: other) is reported as 82 % of control and the T/C (dose: 200.0 mg/kg/injection, schedule: Q#A X022 (im), vehicle: other) is reported as 79 % of control. The T/C (dose: 200.0 mg/kg/injection, schedule: Q#A X022 (sc), vehicle: other) was 82 % of control, the T/C (dose: 300.0 mg/kg/injection, schedule: Q#A X022 (im), vehicle: other) was 73 % of control and the T/C (dose: 300.0 mg/kg/injection, schedule: Q#A X022 (ip), vehicle: other) was 29 % of control. The T/C (dose: 300.0 mg/kg/injection, schedule: Q#A X022 (sc), vehicle: other) was 52 % of control, the T/C (dose: 400.0 mg/kg/injection, schedule: Q#A X022 (im), vehicle: other) was 73 % of control and the T/C (dose: 400.0 mg/kg/injection, schedule: Q#A X022 (sc), vehicle: other) was 68 % of control.

With `NCC(=O)Nc1ccc(O)cc1` the T/C [1] was 22 % of control and 42 % of control.

For `O=C(CC[n+]1ccccc1)N1CCN(C(=O)CC[n+]2ccccc2)CC1`, the T/C (dose: 1.0 mg/kg/injection, schedule: Q01DX011 (ip), vehicle: methylcellulose (MC)) was 94 % of control and the T/C (dose: 3.0 mg/kg/injection, schedule: Q01DX011 (ip), vehicle: methylcellulose (MC)) was 68 % of control.
